Experimental data: patent publication US7196112B2, “Cell adhesion inhibitors” (Biogen Idec MA Inc., priority 2004, dated 2007)

System: lymphocyte count
Experiment: Lymphocyte counts following inhibitor treatment (lymphocytosis)
Assay type: in vivo, rat
Details: 30 mg/kg s.c., single dose
Method: Female Lewis rats were injected with a single dose of either compound H (1 mg/kg, s.c in PBS), or compound R (30 mg/kg, s.c., in TRIS/lactose) or with their respective vehicles at time 0. At each timepoint, 0.3 mL blood from triplicate animals was drawn from the jugular vein without anesthesia and collected into Capiject purple-top microtainer tubes containing EDTA (Terumo Medical Corporation #T-MQK). […] samples were analyzed for lymphocyte count using an Abbott CellDyn 3500 cell analyzer. Blood samples from the compound H-treated animals were drawn at 4 hours, 8 hours, 12 hours, and on days 1, 2, 3, 4, 5, 6, 7, 8, and 9 and for the compound R-treated animals after 2, 6, 24, and 48 h.
Administration of compounds R and H to rats produced an α4β1-integrin dependent lymphocytosis that was sustained as long as sufficient concentrations of the inhibitors were maintained in circulation. From previous studies >90% of α4β1 receptors are estimated to be occupied to maintain lymphocytosis and therefore a target concentration of greater than or equal to 10 ng/mL compound needs to be maintained (see Leone, D. R., et al. (2003) J. Pharmacol. Exp. Ther. 305:1150–1162). […] A 2–3 fold increase in lymphocyte levels was observed. […] Elevated lymphocyte levels were maintained for 6 days. By day 9 lymphocyte levels had returned to normal. […]

**Q.** Which results are given for `Cc1ccccc1NC(=O)Nc1ccc(CC(=O)N(C)[C@@H](CC(C)C)C(=O)NCC[C@H](NC(=O)[C@@H]2CCCN2S(=O)(=O)c2cc(Cl)cc(Cl)c2)C(=O)O)cc1` [Compound R, 2S-{[1-(3,5-dichloro-benzenesulfonyl)-pyrrolidine-2S-carbonyl]-amino}-4-[4-methyl-2S-(methyl-{2-[4-(3-o-tolyl-ureido)-phenyl]-acetyl}-amino)-pentanoylamino]-butyric acid]?
**A.** day by which lymphocyte levels returned to normal: ≤ 2 days; duration of lymphocytosis: one
